According to PMC5573954 (Hippocampus, 2017):
Like-named read-outs stand apart in the source and are kept apart here.

Assays:
hM4 = molecular target: T1, hM4 (Homo sapiens, UniProt P08173); test: GloSensor cAMP functional assay, HEK293 cells stably expressing hM4; conditions: for selectivity for hM4 over hM2 (fold shift of PAM EC50): hM2 EC50 versus hM4 EC50, PAM mode
T1 sequence (P08173 1-479): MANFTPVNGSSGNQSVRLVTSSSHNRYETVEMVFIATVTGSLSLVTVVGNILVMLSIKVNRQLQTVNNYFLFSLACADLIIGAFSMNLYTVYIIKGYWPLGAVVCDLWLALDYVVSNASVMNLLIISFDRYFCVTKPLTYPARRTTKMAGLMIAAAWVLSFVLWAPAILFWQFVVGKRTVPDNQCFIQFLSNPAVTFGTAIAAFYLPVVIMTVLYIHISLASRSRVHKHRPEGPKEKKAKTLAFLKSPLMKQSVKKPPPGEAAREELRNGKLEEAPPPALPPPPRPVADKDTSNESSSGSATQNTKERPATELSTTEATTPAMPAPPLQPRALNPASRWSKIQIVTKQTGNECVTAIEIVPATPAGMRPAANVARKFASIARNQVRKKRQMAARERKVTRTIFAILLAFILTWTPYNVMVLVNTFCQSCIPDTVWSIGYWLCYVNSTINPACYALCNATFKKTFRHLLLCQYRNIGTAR

hM3 = hM3 (Homo sapiens, UniProt P20309); test: FLIPR Ca2+ functional assay, CHO K1 cells stably expressing hM3; format: cell-based
rat M4 receptor (rM4) = molecular target: T2, rat M4 receptor (rM4) (Rattus norvegicus, UniProt P08485); test: GloSensor cAMP functional assay, HEK293 cells stably expressing rM4
T2 sequence (P08485 1-478): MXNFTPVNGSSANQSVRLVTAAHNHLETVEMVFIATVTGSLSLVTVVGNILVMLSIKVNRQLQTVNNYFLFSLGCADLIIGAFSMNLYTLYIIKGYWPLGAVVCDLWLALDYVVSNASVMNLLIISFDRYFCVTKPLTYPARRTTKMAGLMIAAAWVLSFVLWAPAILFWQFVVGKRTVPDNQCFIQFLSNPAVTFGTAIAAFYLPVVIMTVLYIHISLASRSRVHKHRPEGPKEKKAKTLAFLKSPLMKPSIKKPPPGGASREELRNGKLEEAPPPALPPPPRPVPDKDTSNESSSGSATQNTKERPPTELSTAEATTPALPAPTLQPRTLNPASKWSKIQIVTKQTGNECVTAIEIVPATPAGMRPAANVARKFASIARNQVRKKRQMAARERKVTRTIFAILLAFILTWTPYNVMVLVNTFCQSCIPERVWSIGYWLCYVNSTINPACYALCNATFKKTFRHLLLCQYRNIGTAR

hM5 = molecular target: T3, hM5 (Homo sapiens, UniProt P08912); test: FLIPR Ca2+ functional assay, CHO K1 cells stably expressing hM5; format: cell-based
T3 sequence (P08912 1-532): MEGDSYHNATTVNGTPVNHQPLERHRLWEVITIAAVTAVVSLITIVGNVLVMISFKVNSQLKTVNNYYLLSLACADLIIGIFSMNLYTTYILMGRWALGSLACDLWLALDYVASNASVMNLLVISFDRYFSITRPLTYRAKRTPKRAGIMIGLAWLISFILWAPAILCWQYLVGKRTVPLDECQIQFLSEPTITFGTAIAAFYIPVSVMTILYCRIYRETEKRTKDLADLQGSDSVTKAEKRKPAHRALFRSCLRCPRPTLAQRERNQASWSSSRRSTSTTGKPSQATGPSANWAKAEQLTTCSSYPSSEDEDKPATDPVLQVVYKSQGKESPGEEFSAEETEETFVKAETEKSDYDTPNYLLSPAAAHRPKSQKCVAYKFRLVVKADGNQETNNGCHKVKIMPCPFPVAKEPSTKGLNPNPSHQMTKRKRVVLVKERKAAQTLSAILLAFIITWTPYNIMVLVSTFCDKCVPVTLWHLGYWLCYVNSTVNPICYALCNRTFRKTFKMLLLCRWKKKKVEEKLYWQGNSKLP

[1] = test system: SC‐evoked EPSCs in CA1 pyramidal neurons; format: cell-based, rat
[2] = test system: TA‐evoked EPSCs in CA1 pyramidal neurons; format: cell-based, rat
CA1 pyramidal neurons = test: Whole‐cell current step evoked firing of CA1 pyramidal neurons; format: cell-based, rat
[3] = test system: putative PV+ CA1 interneurons; test: Whole‐cell current step evoked firing of putative PV+ CA1 interneurons; format: cell-based, rat; conditions: 300 nM; n = 4; p = 0.0275
[4] = test system: spontaneous firing rates of CA1 neurons
hM1 = molecular target: T4, hM1 (Homo sapiens, UniProt P11229); test: FLIPR Ca2+ functional assay, CHO K1 cells stably expressing hM1; format: cell-based
T4 sequence (P11229 1-460): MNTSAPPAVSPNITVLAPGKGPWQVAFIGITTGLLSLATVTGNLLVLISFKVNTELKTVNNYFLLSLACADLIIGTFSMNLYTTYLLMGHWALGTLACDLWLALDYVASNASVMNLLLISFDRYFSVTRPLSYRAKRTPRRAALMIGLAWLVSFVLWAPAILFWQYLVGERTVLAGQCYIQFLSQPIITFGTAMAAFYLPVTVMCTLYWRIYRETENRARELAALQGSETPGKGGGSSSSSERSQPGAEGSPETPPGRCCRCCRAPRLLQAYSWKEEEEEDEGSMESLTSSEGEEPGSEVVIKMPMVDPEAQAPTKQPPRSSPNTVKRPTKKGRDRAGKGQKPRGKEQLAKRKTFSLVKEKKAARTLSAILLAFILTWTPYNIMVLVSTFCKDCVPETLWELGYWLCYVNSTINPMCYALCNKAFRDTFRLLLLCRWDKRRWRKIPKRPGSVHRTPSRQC

hM2 = molecular target: T5, hM2 (Homo sapiens, UniProt P08172); test: GloSensor cAMP functional assay, HEK293 cells stably expressing hM2; format: cell-based
T5 sequence (P08172 1-466): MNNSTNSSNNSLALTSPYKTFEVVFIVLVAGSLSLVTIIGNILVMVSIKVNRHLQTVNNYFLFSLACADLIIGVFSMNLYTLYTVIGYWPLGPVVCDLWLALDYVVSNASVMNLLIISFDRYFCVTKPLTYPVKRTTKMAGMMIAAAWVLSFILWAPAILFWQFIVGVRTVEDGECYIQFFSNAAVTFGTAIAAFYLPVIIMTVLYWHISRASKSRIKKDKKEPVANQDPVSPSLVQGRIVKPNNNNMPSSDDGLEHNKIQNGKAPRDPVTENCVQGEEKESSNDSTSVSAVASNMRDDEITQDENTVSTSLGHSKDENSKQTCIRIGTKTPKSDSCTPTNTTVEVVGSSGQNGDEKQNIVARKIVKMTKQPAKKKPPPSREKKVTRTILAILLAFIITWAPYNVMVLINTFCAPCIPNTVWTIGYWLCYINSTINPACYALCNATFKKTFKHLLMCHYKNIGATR

rat M4 receptor = conditions: ref Chan et al., 2008; cited from earlier work
[5] = molecular target: beta‐2 adrenergic receptors (Homo sapiens, UniProt P07550); test: Nonmuscarinic off-target functional activity: beta-2 adrenergic antagonism; format: cell-based
5HT2b receptors = 5HT2b receptors (Homo sapiens, UniProt P41595); test: Nonmuscarinic off-target functional activity: 5HT2b antagonism; format: cell-based
[6] = test system: SC‐evoked synaptic field potentials in CA1 of hippocampal slices; test: Extracellular field potentials evoked by SC stimulation, hippocampal slices; conditions: from fitted dose–response curve, Figure 2a
[7] = 5 μM, end of recordings with PT‐3763, mean ± SEM

Chain of hM3 (P20309 whole entry): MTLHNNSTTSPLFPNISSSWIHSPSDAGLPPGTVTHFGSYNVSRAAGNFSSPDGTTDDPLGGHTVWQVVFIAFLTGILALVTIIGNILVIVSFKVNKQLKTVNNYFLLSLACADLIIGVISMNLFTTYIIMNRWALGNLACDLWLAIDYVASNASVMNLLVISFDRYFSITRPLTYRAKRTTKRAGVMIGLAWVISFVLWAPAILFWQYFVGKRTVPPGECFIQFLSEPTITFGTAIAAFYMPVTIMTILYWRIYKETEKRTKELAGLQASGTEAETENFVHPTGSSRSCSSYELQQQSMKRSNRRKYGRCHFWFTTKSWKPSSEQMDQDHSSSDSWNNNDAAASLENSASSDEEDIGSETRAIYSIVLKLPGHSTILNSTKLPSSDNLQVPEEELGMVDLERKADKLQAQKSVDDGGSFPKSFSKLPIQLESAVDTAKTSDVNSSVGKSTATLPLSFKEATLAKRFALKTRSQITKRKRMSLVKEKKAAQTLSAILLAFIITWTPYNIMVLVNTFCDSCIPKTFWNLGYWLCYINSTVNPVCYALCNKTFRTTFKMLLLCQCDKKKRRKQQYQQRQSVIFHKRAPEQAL
Chain of 5HT2b receptors (P41595 whole entry): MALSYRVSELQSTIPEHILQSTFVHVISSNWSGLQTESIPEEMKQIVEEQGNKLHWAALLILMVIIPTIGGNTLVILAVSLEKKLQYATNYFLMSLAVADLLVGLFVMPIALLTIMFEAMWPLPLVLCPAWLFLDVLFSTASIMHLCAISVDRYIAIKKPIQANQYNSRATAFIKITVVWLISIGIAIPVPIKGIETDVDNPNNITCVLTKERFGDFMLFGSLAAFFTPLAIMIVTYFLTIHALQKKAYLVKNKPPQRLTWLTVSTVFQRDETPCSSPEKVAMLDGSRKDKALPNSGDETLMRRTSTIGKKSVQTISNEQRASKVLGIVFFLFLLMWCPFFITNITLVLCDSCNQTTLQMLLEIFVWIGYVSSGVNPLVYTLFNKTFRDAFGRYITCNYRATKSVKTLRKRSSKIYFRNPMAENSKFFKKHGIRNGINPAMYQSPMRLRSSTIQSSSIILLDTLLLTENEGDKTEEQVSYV
Chain of beta‐2 adrenergic receptors (P07550 whole entry): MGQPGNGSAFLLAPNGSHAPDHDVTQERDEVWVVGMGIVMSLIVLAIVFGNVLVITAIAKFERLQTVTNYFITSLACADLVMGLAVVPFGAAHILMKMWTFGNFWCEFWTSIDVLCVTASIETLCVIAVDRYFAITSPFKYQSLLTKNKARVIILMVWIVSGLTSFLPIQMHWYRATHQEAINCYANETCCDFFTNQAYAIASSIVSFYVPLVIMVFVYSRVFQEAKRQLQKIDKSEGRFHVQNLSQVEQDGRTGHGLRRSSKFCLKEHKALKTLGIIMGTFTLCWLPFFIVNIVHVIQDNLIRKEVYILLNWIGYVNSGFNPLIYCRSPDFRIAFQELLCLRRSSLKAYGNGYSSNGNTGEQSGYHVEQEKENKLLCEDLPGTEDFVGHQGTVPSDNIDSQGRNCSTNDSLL

## CC(=O)OCC[N+](C)(C)C [ACh, acetylcholine]
hM4; hM4 cell line
  ACh EC20: 15 nM
hM3; hM3 cell line
  ACh EC20: 0.8 nM
Rat M4 receptor (rM4); rM4 cell line
  ACh EC20: 0.8 nM
hM5; hM5 cell line
  ACh EC20: 2 nM

## N#Cc1cc2[nH]c(=O)c(=O)[nH]c2cc1[N+](=O)[O-] [CNQX]
[1]; [7]
  CNQX‐induced suppression of SC‐evoked responses: 85.2 ± 4.1%
[2]; [7]
  CNQX‐induced suppression of TA‐evoked responses: 79.4 ± 4.8%

## Cc1cc(F)c2[nH]c(=O)n(C3CCN(C4CCOCC4)CC3)c2c1 [GSK1034702]
CA1 pyramidal neurons; 300 nM, 200 pA current injection
  spike frequency accommodation: significantly reduced
CA1 pyramidal neurons; 300 nM, p = 0.012 vs baseline
  number of spikes evoked in response to a 200 pA injected current step: increase
hM4
  EC50: 1430 nM
[3]
  firing rates of interneurons following current step: increased firing rates
[1]; 300 nM, 100 μM picrotoxin
  effect on amplitude, slope, or PPR of EPSCs evoked by SC stimulation: no significant effect
[4]; GSK1034702 data set with VU0255035 reversal
  upper z‐score asymptote of normalized spontaneous firing rates: 56.3 ± 11.9
[4]; GSK1034702 data set with pirenzipine reversal
  upper z‐score asymptote of normalized spontaneous firing rates: 86.9 ± 13.6
[2]; 300 nM, 100 μM picrotoxin
  effect on amplitude, slope, or PPR of EPSCs evoked by TA stimulation: no significant effect
hM1
  EC50: 27 nM

## COc1nc2sc(C(=O)NC3CC3)c(N)c2c(C)c1Cl [LY2033298]
hM4; hM4, PAM mode, in the presence of an EC20 of ACh (15 nM), isoproterenol 50 nM, brackets 95% CI
  EC50: 41 nM
hM2; hM2, PAM mode, in the presence of an EC20 of ACh (3 nM), isoproterenol 50 nM, brackets 95% CI
  EC50: 3280 nM
Rat M4 receptor
  potency at the rat M4 receptor compared with the human: much weaker

## Cc1nnc2sc(C(=O)NC3CN(c4cccnc4)C3)c(N)c2c1C [PT‐1148, 5‐amino‐3,4‐dimethyl‐N‐(1‐(pyridin‐3‐yl)azetidin‐3‐yl)thieno[2,3‐c]pyridazine‐6‐carboxamide]
hM4
  selectivity for hM4 over hM2 (fold shift of PAM EC50): 536 fold
[4]; in the presence of 20 nM oxotremorine and 1 μM VU0255035, not significant (p = 0.875)
  upper z‐score asymptote of normalized spontaneous firing rates: 3.77 ± 23.9

## Cc1cc(C)c2c(N)c(C(=O)NC3CN(c4cccnc4)C3)sc2n1 [PT‐3763, 3‐amino‐4,6‐dimethyl‐N‐(1‐(pyridin‐3‐yl)azetidin‐3‐yl)thieno[2,3‐b]pyridine‐2‐carboxamide]
hM4
  selectivity for hM4 over hM2 (fold shift of PAM EC50): 28 fold
[5]
  IC50: 2990 nM

## CCOC(=O)N1CCCC(N2CCC(c3cccnc3OC)CC2)CC1 (stereo not shown) [PT‐6950, ethyl 4‐(4‐(2‐methoxypyridin‐3‐yl)piperidin‐1‐yl)azepane‐1‐carboxylate]
5HT2b receptors
  IC50: 1260 nM
hM3
  EC50: > 10000 nM
Rat M4 receptor (rM4)
  EC50: 2.62 nM
hM5
  EC50: > 10000 nM
[4]; compound alone, mean ± SEM
  upper z‐score asymptote of normalized spontaneous firing rates: 12.0 ± 16.7
hM1
  EC50: 312 nM
hM2
  EC50: 2880 nM

## O=C(CCNS(=O)(=O)c1cccc2nsnc12)N1CCN(c2ccncc2)CC1 [VU0255035]
[4]; 3 μM
  effect on GSK1034702 induced increase in CA1 firing rates: reversed
  effect on oxotremorine induced increase in spontaneous firing rates: partially reversed

## O=C1CCCN1CC#CCN1CCCC1 [oxotremorine]
[4]; compound alone, mean ± SEM
  upper z‐score asymptote of normalized spontaneous firing rates: 108.2 ± 6.3
[6]
  EC20 of oxotremorine for reduction of SC‐evoked field potentials: 20 nM

## CN1CCN(CC(=O)N2c3ccccc3C(=O)Nc3cccnc32)CC1 [pirenzepine]
CA1 pyramidal neurons; 3 μM
  effect on GSK1034702 induced increase in evoked spikes: reversed
  effect on GSK1034702 induced reduction of spike frequency accommodation: similarly reversed
[1]; 3 μM, applied after PTX + OXO + M4 PAM
  effect on M4 PAM induced reduction of SC‐evoked EPSC amplitude and slope: reversed
[4]; 3 μM
  effect on GSK1034702 induced increase in CA1 firing rates: reversed
